According to patent publication US20020051760A1, “Method for screening a substance having promoting activity on hair growth” (SUMITOMO ELECTRIC INDUSTRIES, Ltd., priority 2000, published 2002):
Where no end group is shown, it is not given here.

How the values were obtained:
[1] = system: Hacl-1 in the cultures (mouse beard); test: Induction of Hacl-1 expression in cultured mouse beard; assay type: cell-based, mice; settings: 50 μg/ml, cultivation for 5 days; the control showed only slight expression
Procedure: (§1) A C57BL mouse (14 weeks old) was shaved on the back with clippers to confirm that the mouse had both skin areas in anagen and telogen as to the hair cycle based on colors of the skin. Each 200 mg of the skin areas in anagen and telogen was collected from the mouse and homogenized on ice for 2 minutes, and then suspended in a buffer (PBS). The supernatant was collected and subjected to SDS-polyacrylamide gel electrophoresis (SDS-PAGE). The respective hair follicles in telogen and anagen were distinguished by observing the tissue section under a microscope, and the criterion shown in FIG. 1 was applied for judgment.
The beard on the both sides of the mice used in Example 2 was collected and cultured by the method described in Development, 105, pp. 271-277, 1989. The beard from one side was used as a control, and that from the other side was treated with the aforementioned oligopeptide ssb7 (50 μg/ml). After cultivation for 5 days, Hacl-1 in the cultures was determined according to the method of Example 1.

[2] = system: Hacl-1 in the hair follicles; test: Induction of Hacl-1 expression and anagen in hair follicles of mouse back skin after subcutaneous injection; assay type: in vivo; settings: C57BL/6 mice in telogen, 0.8 mg/ml solution, 0.1 ml subcutaneously 5 times at intervals of 24 hours
Procedure: as §1
Promoting activity on hair growth of the aforementioned polypeptide H1 and oligopeptide ssb7 was evaluated. C57BL/6 mice are known to have sustained telogen for about 50 days from the 45-day after birth to around the 95-day, and the hair cycle of the animal is easily judged based on the skin color changes, i.e., from pink in telogen to gray or black in anagen. […] The polypeptide H1 solution (0.8 mg/ml) or the oligopeptide ssb7 solution (0.8 mg/ml) prepared above was subcutaneously injected 5 times in the amount of 0.1 ml at intervals of 24 hours, and Hacl-1 in the hair follicles was measured with time according to the method of Example 1.

For “ssb7: S-S bridged oligopeptide obtained by crosslinking pep7 (Ser-Ile-Glu-Gln-Ser-Cys-Asp-Gln-Asp-Glu) with BMH (SIEQSCDQDE; not fully specified; printed as Ser-Ile-Glu-Gln-Ser-Cys-Asp-Gln-Asp-Glu; also: two chains crosslinked through Cys6 by BMH (bismaleimidohexane))”, the “expression of Hacl-1 in cultured beard” value [1] was “expression of Hacl-1 was observed”, the “induction of anagen of the hair follicles” value ([2]; 20-day, judged from Hacl-1 expression) was “induction of anagen” and the “Hacl-1 band in hair follicle samples (Western Blotting with antiserum against Hacl-1)” value ([2]; samples at 20-day) was “clear band of Hacl-1 was observed”.
